Target: human PTGES (Homo sapiens (Human), UniProt O14684)
Assay: Human PTGES biochemical enzyme inhibition assay (conversion of PGH2 to PGE2, TR-FRET)
Details: Enzymatic conversion of PGH2 to PGE2; read-out: Human PTGES IC50
Summary of the method: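 FLAG-tagged human PTGES from Hi-5 insect cells preincubated 15–20 min with compound in pH 7.2 phosphate buffer with 2.5 mM reduced glutathione; reaction started with 8 nM PGH2 final, stopped with SnCl2/KF.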

Sequence of human PTGES (O14684 whole entry): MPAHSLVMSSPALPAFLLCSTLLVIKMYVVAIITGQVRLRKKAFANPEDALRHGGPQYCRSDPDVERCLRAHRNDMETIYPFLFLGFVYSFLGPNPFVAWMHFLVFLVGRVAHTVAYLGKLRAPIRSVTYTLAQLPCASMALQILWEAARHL

Row | SMILES | IC50
1 | Cc1c(NC(=O)C(c2ccc(-c3cncc(Cl)c3)c(F)c2)C2CCC2)cccc1C(C)CC(=O)O (single isomer, unassigned; stereoisomer 1) [Example 150, 3-[3-({[4-(5-Chloropyridin-3-yl)-3-fluorophenyl](cyclobutyl)acetyl}amino)-2-methylphenyl]butanoic acid, Stereoisomer 1] | 2620 nM
2 | Cc1c(CC(C)C(=O)O)cccc1NC(=O)C(c1ccc(-c2cncc(C(F)(F)F)c2)cc1)C1CCCC1 (single isomer, unassigned; stereoisomer 2) [Example 70, 3-{3-[(Cyclopentyl{4-[5-(trifluoromethyl)pyridin-3-yl]phenyl}acetyl)amino]-2-methylphenyl}-2-methylpropanoic acid, Stereoisomer 2] | 52.9 nM
3 | Cc1ncc(-c2ccc(C(C(=O)Nc3cccc(CC(C)C(=O)O)c3C)C3CCCC3)cc2)cc1Cl (single isomer, unassigned; stereoisomer 2) [Example 84, 3-[3-({[4-(5-Chloro-6-methylpyridin-3-yl)phenyl](cyclopentyl)acetyl}amino)-2-methylphenyl]-2-methylpropanoic acid, Stereoisomer 2] | 41.1 nM
4 | Cc1c(NC(=O)C(c2ccc(-c3cncc(C(F)(F)F)c3)c(F)c2)C2CCCC2)cccc1C(C)CC(=O)O (single isomer, unassigned; stereoisomer 2) [Example 117, 3-{3-[(Cyclopentyl{3-fluoro-4-[5-(trifluoromethyl)pyridin-3-yl]phenyl}acetyl)amino]-2-methylphenyl}butanoic acid, Stereoisomer 2] | 15.6 nM
5 | Cc1ncc(-c2ccc(C(C(=O)Nc3cccc(C(C)CC(=O)O)c3C)C3CCCC3)cc2F)cc1Cl (single isomer, unassigned; stereoisomer 2) [Example 122, 3-[3-({[4-(5-Chloro-6-methylpyridin-3-yl)-3-fluorophenyl](cyclopentyl)acetyl}amino)-2-methylphenyl]butanoic acid, Stereoisomer 2] | 22.8 nM
6 | Cc1c(NC(=O)C(c2ccc(-c3cncc(Cl)c3)c(F)c2)C2CCCC2)cccc1C(C)CC(=O)O (single isomer, unassigned; stereoisomer 2) [Example 127, 3-[3-({[4-(5-Chloropyridin-3-yl)-3-fluorophenyl](cyclopentyl)acetyl}amino)-2-methylphenyl]butanoic acid, Stereoisomer 2] | 31.5 nM
7 | Cc1c(NC(=O)C(c2ccc(-c3cncc(Cl)c3)cc2)C2CCC2)cccc1C(C)CC(=O)O (single isomer, unassigned; stereoisomer 2) [Example 137] | 2900 nM
8 | Cc1c(NC(=O)C(c2ccc(-c3cncc(C(F)(F)F)c3)c(F)c2)C2CCC2)cccc1C(C)CC(=O)O (single isomer, unassigned; stereoisomer 2) [Example 148, 3-{3-[(Cyclobutyl{3-fluoro-4-[5-(trifluoromethyl)pyridin-3-yl]phenyl}acetyl)amino]-2-methylphenyl}butanoic acid, Stereoisomer 2] | 24.2 nM
9 | Cc1c(NC(=O)C(c2ccc(-c3cncc(Cl)c3)c(F)c2)C2CCC2)cccc1C(C)CC(=O)O (single isomer, unassigned; stereoisomer 2) [Example 151, 3-[3-({[4-(5-Chloropyridin-3-yl)-3-fluorophenyl](cyclobutyl)acetyl}amino)-2-methylphenyl]butanoic acid, Stereoisomer 2] | 46.5 nM
10 | Cc1c(CC(C)C(=O)O)cccc1NC(=O)C(c1ccc(-c2cncc(C(F)(F)F)c2)cc1)C1CCCC1 (single isomer, unassigned; stereoisomer 3) [Example 71, 3-{3-[(Cyclopentyl{4-[5-(trifluoromethyl)pyridin-3-yl]phenyl}acetyl)amino]-2-methylphenyl}-2-methylpropanoic acid, Stereoisomer 3] | 15900 nM
11 | Cc1c(NC(=O)C(c2ccc(-c3cncc(C(F)(F)F)c3)c(F)c2)C2CCCC2)cccc1C(C)CC(=O)O (single isomer, unassigned; stereoisomer 3) [Example 118, 3-{3-[(Cyclopentyl{3-fluoro-4-[5-(trifluoromethyl)pyridin-3-yl]phenyl}acetyl)amino]-2-methylphenyl}butanoic acid, Stereoisomer 3] | 383 nM
12 | Cc1ncc(-c2ccc(C(C(=O)Nc3cccc(C(C)CC(=O)O)c3C)C3CCCC3)cc2F)cc1Cl (single isomer, unassigned; stereoisomer 3) [Example 123, 3-[3-({[4-(5-Chloro-6-methylpyridin-3-yl)-3-fluorophenyl](cyclopentyl)acetyl}amino)-2-methylphenyl]butanoic acid, Stereoisomer 3] | 646 nM
13 | Cc1c(NC(=O)C(c2ccc(-c3cncc(Cl)c3)c(F)c2)C2CCCC2)cccc1C(C)CC(=O)O (single isomer, unassigned; stereoisomer 3) [Example 128, 3-[3-({[4-(5-Chloropyridin-3-yl)-3-fluorophenyl](cyclopentyl)acetyl}amino)-2-methylphenyl]butanoic acid, Stereoisomer 3] | 1730 nM
14 | Cc1c(NC(=O)C(c2ccc(-c3cncc(Cl)c3)cc2)C2CCC2)cccc1C(C)CC(=O)O (single isomer, unassigned; stereoisomer 3) [Example 138] | 2040 nM
15 | Cc1c(NC(=O)C(c2ccc(-c3cncc(Cl)c3)c(F)c2)C2CCC2)cccc1C(C)CC(=O)O (single isomer, unassigned; stereoisomer 3) [Example 152, 3-[3-({[4-(5-Chloropyridin-3-yl)-3-fluorophenyl](cyclobutyl)acetyl}amino)-2-methylphenyl]butanoic acid, Stereoisomer 3] | 914 nM
16 | Cc1c(CC(C)C(=O)O)cccc1NC(=O)C(c1ccc(-c2cncc(C(F)(F)F)c2)cc1)C1CCCC1 (single isomer, unassigned; stereoisomer 4) [Example 72, 3-{3-[(Cyclopentyl{4-[5-(trifluoromethyl)pyridin-3-yl]phenyl}acetyl)amino]-2-methylphenyl}-2-methylpropanoic acid, Stereoisomer 4] | 71 nM
17 | CCC(CC(=O)O)c1cccc(NC(=O)C(c2ccc(-c3cncc(F)c3)cc2)C2CCCC2)c1C (single isomer, unassigned; stereoisomer 4) [Example 106, 3-[3-({[4-(5-Fluoropyridin-3-yl)phenyl](cyclopentyl)acetyl}amino)-2-methylphenyl]pentanoic acid, Stereoisomer 4] | 156 nM
18 | Cc1c(NC(=O)C(c2ccc(-c3cncc(C(F)(F)F)c3)c(F)c2)C2CCCC2)cccc1C(C)CC(=O)O (single isomer, unassigned; stereoisomer 4) [Example 119, 3-{3-[(Cyclopentyl{3-fluoro-4-[5-(trifluoromethyl)pyridin-3-yl]phenyl}acetyl)amino]-2-methylphenyl}butanoic acid, Stereoisomer 4] | 1060 nM
19 | Cc1ncc(-c2ccc(C(C(=O)Nc3cccc(C(C)CC(=O)O)c3C)C3CCCC3)cc2F)cc1Cl (single isomer, unassigned; stereoisomer 4) [Example 124, 3-[3-({[4-(5-Chloro-6-methylpyridin-3-yl)-3-fluorophenyl](cyclopentyl)acetyl}amino)-2-methylphenyl]butanoic acid, Stereoisomer 4] | 5.06 nM
20 | Cc1c(NC(=O)C(c2ccc(-c3cncc(Cl)c3)c(F)c2)C2CCCC2)cccc1C(C)CC(=O)O (single isomer, unassigned; stereoisomer 4) [Example 129, 3-[3-({[4-(5-Chloropyridin-3-yl)-3-fluorophenyl](cyclopentyl)acetyl}amino)-2-methylphenyl]butanoic acid, Stereoisomer 4] | 5.6 nM
21 | Cc1c(NC(=O)C(c2ccc(-c3cncc(Cl)c3)cc2)C2CCC2)cccc1C(C)CC(=O)O (single isomer, unassigned; stereoisomer 4) [Example 139] | 107 nM
22 | Cc1c(NC(=O)C(c2ccc(-c3cncc(Cl)c3)c(F)c2)C2CCC2)cccc1C(C)CC(=O)O (single isomer, unassigned; stereoisomer 4) [Example 153, 3-[3-({[4-(5-Chloropyridin-3-yl)-3-fluorophenyl](cyclobutyl)acetyl}amino)-2-methylphenyl]butanoic acid, Stereoisomer 4] | 11.7 nM
23 | Cc1cc(-c2ccc(C(C(=O)Nc3cccc(CC(C)C(=O)O)c3C)C3CCCC3)cc2)cnc1C (stereo not shown) [Example 78, (2R/2S)-3-[3-({(2R/2S)-2-Cyclopentyl-2-[4-(5,6-dimethylpyridin-3-yl)phenyl]acetyl}amino)-2-methylphenyl]-2-methylpropanoic acid] | 118 nM
24 | Cc1ccc(-c2ccc(C(C(=O)Nc3cccc(CC(C)C(=O)O)c3C)C3CCCC3)cc2)cn1 (stereo not shown) [Example 79, (2R/2S)-3-[3-({(2R/2S)-2-Cyclopentyl-2-[4-(6-methylpyridin-3-yl)phenyl]acetyl}amino)-2-methylphenyl]-2-methylpropanoic acid] | 433 nM
25 | Cc1c(CC(C)C(=O)O)cccc1NC(=O)C(c1ccc(-c2cncc(OC(F)F)c2)cc1)C1CCCC1 (stereo not shown) [Example 80, (2R/2S)-3-(3-{[(2R/2S)-2-Cyclopentyl-2-{4-[5-(difluoromethoxy)pyridin-3-yl]phenyl}acetyl]amino}-2-methylphenyl)-2-methylpropanoic acid] | 88.5 nM
26 | Cc1cncc(-c2ccc(C(C(=O)Nc3cccc(CC(C)C(=O)O)c3C)C3CCCC3)cc2)c1 (stereo not shown) [Example 81, (2R/2S)-3-[3-({(2R/2S)-2-Cyclopentyl-2-[4-(5-methylpyridin-3-yl)phenyl]acetyl}amino)-2-methylphenyl]-2-methylpropanoic acid] | 172 nM
27 | Cc1ncc(-c2ccc(C(C(=O)Nc3cccc(CC(C)C(=O)O)c3C)C3CCCC3)cc2)cc1F (stereo not shown) [Example 82, (2R/2S)-3-[3-({(2R/2S)-2-Cyclopentyl-2-[4-(5-fluoro-6-methylpyridin-3-yl)phenyl]acetyl}amino)-2-methylphenyl]-2-methylpropanoic acid] | 90.6 nM
28 | Cc1c(NC(=O)C(c2ccc(-c3cncc(Cl)c3)c(F)c2)C2CCC2)cccc1C(C)CC(=O)O (stereo not shown) [Example 149] | 52.1 nM

From US10172814B2, “Substituted pyridyl-cycloalkyl-carboxylic acids, compositions containing them and medical uses thereof” (BAYER PHARMA AKTIENGESELLSCHAFT, priority 2014, dated 2019)
